# In patent US20240408211A1, “COMPOSITIONS AND METHODS OF AMELIORATING AVERSIVENESS OF AVERSIVE STIMULI BY INHIBITION OF PURINERGIC RECEPTORS” (Monell Chemical Senses Center, priority 2021, published 2024):
# Where two headings read alike, the source gives them in different places.
# What was measured:
# P2X2/3 = molecular target: T1, P2X2/3 (Homo sapiens, UniProt P56373+Q9UBL9); assay: P2X2/3 stable HEK293 cell lines responding to α,β-meATP (screening assay); assay type: cell-based
# T1 construct: expressed in transfected cells; host or cells: HEK293
# T1 sequence (Q9UBL9 1-471): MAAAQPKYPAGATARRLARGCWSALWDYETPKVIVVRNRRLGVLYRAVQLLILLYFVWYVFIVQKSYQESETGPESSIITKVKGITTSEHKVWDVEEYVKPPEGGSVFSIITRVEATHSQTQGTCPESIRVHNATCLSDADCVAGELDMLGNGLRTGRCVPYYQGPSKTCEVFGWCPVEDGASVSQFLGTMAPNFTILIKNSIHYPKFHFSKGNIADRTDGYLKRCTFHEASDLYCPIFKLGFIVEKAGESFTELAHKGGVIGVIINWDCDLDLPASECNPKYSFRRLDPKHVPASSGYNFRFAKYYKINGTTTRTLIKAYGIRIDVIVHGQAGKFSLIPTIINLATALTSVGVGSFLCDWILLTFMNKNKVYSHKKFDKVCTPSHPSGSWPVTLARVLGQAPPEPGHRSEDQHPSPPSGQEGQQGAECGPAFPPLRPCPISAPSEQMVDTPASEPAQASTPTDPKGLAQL
# T1 sequence (P56373 1-397): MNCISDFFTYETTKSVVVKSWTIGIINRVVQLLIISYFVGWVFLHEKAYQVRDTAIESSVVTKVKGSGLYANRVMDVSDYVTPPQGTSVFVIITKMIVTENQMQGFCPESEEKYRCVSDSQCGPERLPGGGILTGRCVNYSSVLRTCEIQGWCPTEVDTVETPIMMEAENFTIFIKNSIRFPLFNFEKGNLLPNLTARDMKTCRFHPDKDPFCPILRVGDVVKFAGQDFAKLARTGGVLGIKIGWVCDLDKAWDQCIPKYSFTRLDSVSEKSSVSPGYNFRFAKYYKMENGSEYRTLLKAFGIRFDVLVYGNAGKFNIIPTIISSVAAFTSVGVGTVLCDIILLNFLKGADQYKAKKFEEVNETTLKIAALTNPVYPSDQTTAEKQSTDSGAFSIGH
# Protocol: In this study, we built stable cell lines expressing P2X2/3 in HEK293 cells via transfection with either P2X2-Neo or P2X3-Zeo constructs, following which selection was performed using Zeocin, G418. Picked clones were grown out from single cells (cultured continuously in the presence of Zeocin and G418) using cloning rings.
# The resulted stable cell lines are used for characterizing putative taste-blockers.
# rats = conditions: cited from earlier work
# patients = conditions: cited from earlier work
# [1] = clinical trial; cited from earlier work
# [2] = in vivo; cited from earlier work
# Protocol for humans: In some experiments, we used a regimen of two 1-minute rinses with 500 μM AF-353 composition (i.e., oral topical administration).
# In this study, we tested an AF-353 composition in humans as an oral rinse after receiving IRB approval for its use. First, we tested rinsing 100 μM (0.04 mg/mL) orally for 2 minutes as 4×30 sec rinses with expectoration. We tested before and after sour, bitter, sweet, and salty solutions (quinine HCl, NaCl, Praziquantal, sucrose, CO2).
# Next, we tested rinsing 500 μM (0.2 mg/mL) AF-353 for two minutes, in 2×1 min increment rinses with expectoration.
smiles,measurement,setting,value
"Nc1ncnc2c1ncn2[C@@H]1O[C@H](COP(=O)(O)CP(=O)(O)OP(=O)(O)O)[C@@H](O)[C@H]1O [α,β-meATP]",IC50,P2X2/3; P2X2/3 stable Line 2,2010 nM
same,IC50,P2X2/3; P2X2/3 stable Line 6,2100 nM
same,IC50,P2X2/3; P2X2/3 stable Line 9,3930 nM
same,IC50,P2X2/3; P2X2/3 stable Line 12,1780 nM
same,IC50,P2X2/3; P2X2/3 stable Line 24,2760 nM
"CNC(=O)c1cc(F)c(-c2nc3cc(C)ccn3c2C[C@@H]2CCCN(C(=O)OC)C2)c(F)c1 [BLU-5937, Methyl (S)-3-((2-(2,6-difluoro-4-(methylcarbamoyl)phenyl)-7-methylimidazo[1,2-a]pyridin-3-yl)methyl)piperidine-1-carboxylate]",influence on taste,"rats; rat, 10-20 mg/kg intraperitoneally",did not influence taste
same,behaviour towards 0.3 mM quinine hydrochloride in two-bottle choice,"rats; rats, 10 or 20 mg/kg ip, 15-min test",avoided the quinine
"COc1cc(C(C)C)c(Oc2cnc(N)nc2N)cc1S(N)(=O)=O [AF-219, 5-[(2,4-diaminopyrimidin-5-yl)oxy]-2-methoxy-4-(propan-2-yl)benzene-1-sulfonamide]",taste disturbances,patients; 600 mg twice daily,taste disturbances in all patients tested
same,taste disturbances,patients; doses as low as 7.5-50 mg twice daily,"also cause taste disturbances, albeit less severe"
same,taste block,"humans; 500 μM, preliminary test",did not block taste
O=C(NCC12CC3CC(CC(C3)C1)C2)c1cc(CCCNCCCO)ccc1Cl [AZD-9056],taste block,"humans; various concentration, negative control composition",did not block taste
Cc1cnc(-c2cc(O[C@@H]3CCOC3)cc(C(=O)N[C@H](C)c3cnc(C(F)(F)F)nc3)c2)s1 [eliapixant],taste-related adverse events (primarily dysgeusia),[1],caused taste-related adverse events
same,effects on ratings of taste intensity measured using taste strips,[2],no concerted effects
